# “Also recorded” adds a separate entry of the source.
# Assays:
# [1] = compared with Tpo itself; literature (Blood 85:981; J interferon Cyto Res); cited from earlier work
# [2] = tested on: heart; details: earlier work of the inventor, U.S. Pat. No. 7,879,318; cited from earlier work
# [3] = tested on: Male Sprague Dawley rats; test: left middle cerebral artery occlusion followed by reperfusion (focal stroke); type: in vivo, rat
# Procedure: Male Sprague Dawley rats, 10 weeks of age (n=6/group) undergo 2-3 hours of left middle cerebral artery occlusion followed by 20-48 hours of reperfusion. Vehicle or thrombopoietin (0.03 to 1.00 μg/kg) is administered intravenously immediately after reperfusion. Brain infarct and swelling, neurologic deficits, matrix metalloproteinase-9 (MMP-9), tissue inhibitor of metalloproteinase-1 (TIMP-1), thrombopoietin and c-Mpl (thrombopoietin receptor) mRNA and protein, MMP-9 enzyme activity and protein expression, and the integrity of the blood-brain barrier are measured. Reperfusion of the left middle cerebral artery occlusion is expected to produce a large infarct and swelling after stroke.
# Thrombopoietin is administered intravenously over the range 0.001-10 μg/kg. […] Stroke-induced increases in cortical MMP-9 mRNA, enzyme activity and protein expression, TIMP-1 mRNA, and Evans blue extravasation would be reduced by administration of thrombopoietin.
# [4] = rat MCA occlusion/reperfusion, i.v. thrombopoietin
compound,measurement,setting,value
CC1=NN(c2ccc(C)c(C)c2)C(=O)/C1=N\Nc1cccc(-c2cccc(C(=O)O)c2)c1O [eltrombopag],crossing of the blood brain barrier relative to Tpo,[1],cross the blood brain barrier more effectively than does Tpo itself
Thrombopoietin,protection of the heart against deleterious effects of ischemia/reperfusion,[2],protects the heart against various deleterious effects of ischemia/reperfusion
same,most effective thrombopoietin dose,"[3]; i.v., tested over the range 0.001-10 μg/kg, immediately or 2 hours after reperfusion",0.05 to 1.0 µg/kg
same,stroke-induced increase in Evans blue extravasation (blood-brain barrier integrity),[3]; [4],reduced
same,stroke-induced increase in TIMP-1 mRNA,[3]; [4],reduced
same,"stroke-induced increases in cortical MMP-9 mRNA, enzyme activity and protein expression",[3]; [4],reduced
same,neurologic deficits after stroke,"[3]; rat MCA occlusion/reperfusion, i.v. immediately or 2 hours after reperfusion, vs untreated controls",ameliorate
same,infarct size and swelling,"[3]; rat, 2-3 h MCA occlusion, 20-48 h reperfusion, thrombopoietin i.v. immediately or 2 hours after reperfusion, vs untreated controls",significantly reduces these indices of injury to the brain in a dose-dependent manner; also recorded: significantly reduce
romiplostim,crossing of the blood brain barrier relative to Tpo,[1],cross the blood brain barrier more effectively than does Tpo itself

# Source: patent US20160176961A1, “THROMBOPOIETIN RECEPTOR LIGANDS FOR NEUROPROTECTION” (MCW Research Foundation, Inc., priority 2011, published 2016)
